Measurements taken from patent publication US20220160604A1, “EMULSION COMPOSITION COMPRISING ULTRAVIOLET WAVELENGTH CONVERSION SUBSTANCE AND ORGANIC OILY PHASE THICKENER” (Shiseido Company, Ltd., priority 2019, published 2022).

System: Human dermal fibroblasts
Assay: Cell activity (AlamarBlue) of cells irradiated with UV through a UV wavelength conversion substance
Format: cell-based
Settings: for cell activity at UV irradiation (relative fluorescence intensity): UV dose 0, 10, 25, 50, 75 or 100 mJ/cm^2, FIG. 3
Protocol: 1. Human dermal fibroblasts and human skin keratinocytes purchased from Kurabo Industries Ltd. were used. A cell suspension (1 mL) stored in liquid nitrogen was thawed in a water bath (37° C.) to an extent that small ice pellets remained, and then diluted with 9 mL of warm medium.
10. Depending on the cell type, fibroblasts were resuspended in FGM or KGM at a concentration of 2×10^4 cells/well (500 μL), and keratinocytes were resuspended in FGM or KGM at a concentration of 4×10^4 cells/well (500 μL) and plated 24-well plates.
11. Cells were seeded in 24-well plates and the media were changed periodically (once every 2 days for fibroblasts and once every 2 to 3 days for keratinocytes) and the cells were grown until 60 to 70% confluence (depending on the type of experiment) was reached. (Note: Fibroblasts should reach the desired confluency in 24 hours at a cell density of 2×10^4 cells/well. When the cell density is low, for example, 1×10^4 cells/well, it takes 48 hours for fibroblasts to reach the desired confluency.)
12. 24 hours before irradiation, the medium was changed to a supplement-free medium (in the case of keratinocytes) or a medium containing a low concentration of serum (0.5% FCS) (in the case of fibroblasts).
1. A solar simulator was turned on at least 30 minutes before irradiation to warm up a lamp. The solar simulator was set to use a UG11 filter. UG11 filters are filters that allow only UVB to pass and cut light of other wavelengths.
3. The cells prepared in Experiment 1-2 were washed once with warm PBS.
4. To each well was added 0.5 mL of a warmed Martinez solution (145 mM NaCl, 5.5 mM KCl, 1.2 mM MgCl2.6H2O, 1.2 mM NaH2PO4.2H2O, 7.5 mM HEPES, 1 mM CaCl2, and 10 mM D-glucose).
5. As depicted in FIG. 1, cell wells were placed on a plate. Then, 0.4 ml of a solution containing the UV wavelength conversion substances (1) to (4) prepared in Experiment 1-1 was injected into each well of a 24-well plate. […]
4. Fluorescence measurement values at 544 nm/590 nm were read using a fluorometer (OPwave +, Ocean Photonics). […]

C-phycocyanin
cell activity at UV irradiation (relative fluorescence intensity) (0.4% C-phycocyanin solution): the decrease in cell activity was suppressed
cell activity at UV irradiation (relative fluorescence intensity) (2% C-phycocyanin solution): the cell activity was even increased
cell activity of cells having activity temporarily reduced by UV (relative fluorescence intensity) (pre-irradiation 400 mJ/cm^2 without substance, then UV 0-200 mJ/cm^2 through 0.4% or 2% C-phycocyanin (effect equivalent at both), FIG. 5): cell activity was recovered
